The source of these data is patent US20260226031A1, “NOVEL COMPOUNDS” (NRG THERAPEUTICS LTD., priority 2023, published 2026).

Experiment [1] relates to mPTP. Put plainly: mPTP activity (Ca2+ retention) assay in isolated rat liver mitochondria. The experiment is classed as biochemical. Conditions: isolated rat liver mitochondria; Fluo5N fluorescence at 10 min after CaCl2 (75 μM) bolus; DMSO 0%, 5 μM cyclosporin A 100% inhibition. From the text:
Pharmacological inhibition or modulation of the mPTP can be measured in well characterised ‘Ca^2+ retention’ assays performed in isolated mitochondria. In vitro, isolated mitochondria rapidly sequester exogenous Ca^2+ until the intramitochondrial Ca^2+ concentration reaches the threshold for mPTP activation. Once the pore is activated, mitochondrial integrity is compromised and the stored Ca^2+ is released. The distribution of Ca^2+ between extra- and intra-mitochondrial compartments can be measured in real time with the use of membrane-impermeant Ca^2+ sensitive fluorescent dyes. Depending on the configuration of the assay, inhibition or modulation of the mPTP either delays the opening of the pore or increases the concentration of Ca^2+ required to induce mPTP opening.
MPTP activity was measured in mitochondria freshly isolated from female Sprague Dawley (250 to 300 gram) rat livers using the following method. Cervical dislocation was performed on the rat. The liver was then perfused in-situ with ~40 ml cold Dulbecco's Phosphate Buffered Saline (DPBS) prior to dissection and transferred into 30 ml Isolation Buffer (250 mM Sucrose, 10 mM KCl, 1 mM EGTA, 1 mM EDTA, 25 mM HEPES, adjusted to pH 7.5 with 1M NaOH). Each lobe of the liver was then removed from the buffer, minced using tweezers and a scalpel into ~5 mm pieces then transferred into a 50 ml Potterton dounce homogenization tube on ice containing 30 ml ice-cold centrifugation buffer (300 mM Trehalose, 25 mM HEPES, 1 mM EGTA, 1 mM EDTA, 10 mM KCl, adjusted to pH 7.5 with 1M NaOH and supplemented with 0.1% bovine serum albumin (BSA) and complete protease inhibitor cocktail (one tablet of inhibitor per 50 mls of buffer). Homogenisation was carried out using a Teflon® pestle at 1800 rpm. The slurry was centrifuged at 800 g for 10 min at 4° C., then the supernatant centrifuged at 10,000 g for 10 min. The pellet was washed once with FLIPR assay buffer (75 mM Mannitol, 25 mM Sucrose, 5 mM Potassium Phosphate Monobasic, 20 mM Tris base, 100 mM KCl, 0.1% BSA adjusted to pH 7.4 with 5M HCl) centrifuged again, then resuspended in FLIPR assay buffer to a concentration of 8.8 mg/ml protein.
Tested compounds (10 mM stock in DMSO) were serially diluted in DMSO in half log steps to generate 10 test concentrations (final concentrations in assay 30 μM to 1 nM). An intermediate dilution of 5 μl DMSO samples into 247 μl FLIPR assay buffer was carried out prior to transfer of 5 μl into duplicate wells of a 384 well polypropylene assay plate. Control wells were 0.5% (v/v) DMSO and 5 μM cyclosporin A.
A stock mitochondria/Fluo5N assay solution was prepared in 5.6 ml FLIPR assay buffer (at RT) supplemented with succinate disodium salt (10 mM), rotenone (1 μM), Fluo5N pentapotassium salt (2 μM) and 1 ml mitochondria suspension, then transferred (15 μl) into the assay plate containing test compounds and incubated for 10 min at RT. Assay plates were processed for fluorescence detection on either a FLIPR Tetra (Molecular Devices) or CLARIOstar (BMG) plate reader. For kinetic fluorescence detection on the FLIPR, dye fluorescence was measured every 3 sec for a total of 10 min. After 12 sec, a 2.5 μl bolus of CaCl2 (75 μM) was added from a source plate containing 675 μM CaCl2 in FLIPR assay buffer. Alternatively, the 2.5 μl addition of CaCl2 was performed using a Viaflow 384, plates were incubated at RT for 10 min, and dye fluorescence measured after 10 min on the CLARIOstar plate reader. pIC50 values for tested compounds were calculated using the fluorescence value collected at the 10 min timepoint on either plate reader, with % inhibition calculated using the DMSO control and cyclosporin A values as 0 and 100% respectively.

The subject of experiment [2] is mPTP. Put plainly: mPTP activity (Ca2+ retention) assay in isolated rat brain mitochondria. As to conditions: for mPTP Rat brain pIC50: isolated rat brain mitochondria, Fluo5N fluorescence at 10 min after Ca2+ (75 μM) bolus. The experiment is classed as biochemical. As to the method: MPTP activity was measured in brain mitochondria freshly isolated from female Sprague Dawley (250 to 300 gram) rats. Anaesthetised rats were perfused in-situ with ~40 ml cold Dulbecco's Phosphate Buffered Saline (DPBS), then brains dissected and transferred into 30 ml Isolation Buffer (225 mM mannitol, 75 mM sucrose, 1 mM EGTA, adjusted to pH 7.4 with 1M NaOH). The brain was minced using tweezers and a scalpel into ~5 mm pieces then transferred into a 50 ml Potterton Dounce homogenization tube on ice containing 10 ml ice-cold isolation buffer (as above with addition of Complete Protease inhibitor; 1 tablet per 50 ml buffer). Homogenisation was carried out using a Teflon® pestle at 1800 rpm. The slurry was centrifuged at 2000 g for 10 min at 4° C., then the supernatant centrifuged at 12,000 g for 9 min. The pellet was resuspended with a dounce homogeniser in isolation buffer as above but with the addition of 0.02% digitonin, centrifuged at 12,000 g for 11 min and finally resuspended in 5 ml modified isolation buffer (as above but with EGTA reduced to 0.1 mM).
Test compounds were prepared in 384 well polypropylene assay plates as described above for the liver mitochondria assay. A stock mitochondria/Fluo5N assay solution was prepared in 5.6 ml assay buffer (120 mM mannitol, 40 mM MOPS, 5 mM KH2PO4, 60 mM KCl, 10 mM pyruvate, 2 mM malate, 2 mM MgCl2, 20 μM ADP, 1.26 μM oligomycin A, adjusted to pH 7.4) supplemented with Fluo5N pentapotassium salt (2 μM) and 1 ml mitochondria suspension, then transferred (15 μl) into the assay plate containing test compounds and incubated for 10 min at RT. Assay plates were then transferred to a FLIPR Tetra plate reader (Molecular Devices). Dye fluorescence was then measured every 3 sec for a total of 10 min.

Turning to `O=C(c1nccc(=O)[nH]1)N1CC(c2ccccc2)C2(CC(F)C2)C1` (single isomer, unassigned) [Example 25b, 2-(2-fluoro-8-phenyl-6-azaspiro[3.4]octane-6-carbonyl)pyrimidin-4(3H)-one], the “mPTP Rat liver pIC50*” value in the experiment on mPTP [1] is reported as <4.52. Further, the “mPTP Rat brain pIC50” value in the experiment on mPTP [2] was found to be 5.57.
Regarding `O=C(c1cc(O)no1)N1CC(c2cccc(F)c2)C2(CCC2)C1` (single isomer, unassigned) [Example 38a, (8-(3-fluorophenyl)-6-azaspiro[3.4]octan-6-yl)(3-hydroxyisoxazol-5-yl)methanone], in the experiment on mPTP [1], the “mPTP Rat liver pIC50*” value came out at 6.41. Besides, the “mPTP Rat brain pIC50” value with mPTP [2] is listed as 7.34.
The corresponding values for `O=C(c1noc(=O)[nH]1)N1CC(c2ccc(F)c(F)c2)C2(CCC2)C1` (single isomer, unassigned) [Example 47b, 3-(8-(3,4-difluorophenyl)-6-azaspiro[3.4]octane-6-carbonyl)-1,2,4-oxadiazol-5(4H)-one] are <4.52 and <4.52.
On to `O=C(c1cncc(=O)[nH]1)N1CC(c2ccc(Br)cc2)C2(CCC2)C1` (single isomer, unassigned) [Example 29a, 6-(8-(4-bromophenyl)-6-azaspiro[3.4]octane-6-carbonyl)pyrazin-2(1H)-one], for which the “mPTP Rat liver pIC50*” value with mPTP [1] was 4.59. In the experiment on mPTP [2], the “mPTP Rat brain pIC50” value turned out to be 6.2.
The corresponding values for `O=C(c1cncc(=O)[nH]1)N1CC(c2ccc(F)cc2F)C2(CCC2)C1` (single isomer, unassigned) [Example 37a, 6-(8-(2,4-difluorophenyl)-6-azaspiro[3.4]octane-6-carbonyl)pyrazin-2(1H)-one] are 5.99 and 7.28.
On to `O=C(c1cc(O)no1)N1CC(c2ccccc2)C2(CCC2)C1` (single isomer, unassigned) [Example 23a, (3-hydroxyisoxazol-5-yl)(8-phenyl-6-azaspiro[3.4]octan-6-yl)methanone], for which the “mPTP Rat liver pIC50*” value with mPTP [1] was determined as 6.17. Further, the “mPTP Rat brain pIC50” value in the experiment on mPTP [2] is reported as 7.22.
The corresponding values for `O=C(c1nccc(=O)[nH]1)N1CC(c2ccccc2)C2(CC(F)C2)C1` (single isomer, unassigned) [Example 25c, 2-(2-fluoro-8-phenyl-6-azaspiro[3.4]octane-6-carbonyl)pyrimidin-4(3H)-one] are 5.68 and 6.54.
The like results for `N#Cc1ccc(C2CN(C(=O)c3cncc(=O)[nH]3)CC23CCC3)cc1` (single isomer, unassigned) [Example 20a, 4-[6-(6-oxo-1H-pyrazine-2-carbonyl)-6-azaspiro[3.4]octan-8-yl]benzonitrile] were, in that order, <4.52 and 4.64.
The corresponding values for `O=C(c1cncc(=O)[nH]1)N1CC(c2ccc(F)cc2)C2(CCC2)C1` (single isomer, unassigned) [Example 35b, 6-(8-(4-fluorophenyl)-6-azaspiro[3.4]octane-6-carbonyl)pyrazin-2(1H)-one] are 5.57 and 5.79.
With `O=C(c1cccc(=O)[nH]1)N1CC(c2ccccc2)C2(CCC2)C1` (single isomer, unassigned) [Example 26a, 6-(8-phenyl-6-azaspiro[3.4]octane-6-carbonyl)pyridin-2(1H)-one], the “mPTP Rat liver pIC50*” value with mPTP [1] was found to be 4.88. For the same compound, the “mPTP Rat brain pIC50” value in the experiment with mPTP [2] is 4.96.
For `O=C(c1cncc(=O)[nH]1)N1CC(c2cc(Cl)ccc2F)C2(CCC2)C1` (single isomer, unassigned) [Example 32a], the “mPTP Rat liver pIC50*” value in the experiment on mPTP [1] was determined as 5.87. In addition, in the experiment with mPTP [2], the “mPTP Rat brain pIC50” value is 7.19.
The corresponding values for `O=C(c1cc(O)no1)N1CC(c2cccc(F)c2F)C2(CCC2)C1` (single isomer, unassigned) [Example 39b, (8-(2,3-difluorophenyl)-6-azaspiro[3.4]octan-6-yl)(3-hydroxyisoxazol-5-yl)methanone] are <4.52 and <4.52.
Regarding `O=C(c1cc(O)no1)N1CC(c2ccc(F)cc2)C2(CCC2)C1` (single isomer, unassigned) [Example 36a, (8-(4-fluorophenyl)-6-azaspiro[3.4]octan-6-yl)(3-hydroxyisoxazol-5-yl)methanone], the “mPTP Rat liver pIC50*” value in the experiment with mPTP [1] worked out at 6.65. Moreover, the “activity in the rat brain mitochondria assay (ranking in words)” value with mPTP [2] (among tested Example compounds) is listed as “highest activity”. Besides, in the experiment on mPTP [2], the “mPTP Rat brain pIC50” value is reported as 7.53.
Turning to `O=C(c1noc(=O)[nH]1)N1CC(c2ccc(F)cc2F)C2(CCC2)C1` (single isomer, unassigned) [Example 48b, 3-(8-(2,4-difluorophenyl)-6-azaspiro[3.4]octane-6-carbonyl)-1,2,4-oxadiazol-5(4H)-one], the “mPTP Rat liver pIC50*” value in the experiment on mPTP [1] is given as <4.52. The “mPTP Rat brain pIC50” value with mPTP [2] is on record as <4.52.
On to `O=C(c1noc(=O)[nH]1)N1CC(c2ccc(F)cc2)C2(CCC2)C1` (single isomer, unassigned) [Example 41a, 3-(8-(4-fluorophenyl)-6-azaspiro[3.4]octane-6-carbonyl)-1,2,4-oxadiazol-5(4H)-one], for which, in the experiment on mPTP [1], the “mPTP Rat liver pIC50*” value was 5.95. Moreover, the “mPTP Rat brain pIC50” value in the experiment with mPTP [2] was 7.19.
As to `CCC1CN(C(=O)c2cncc(=O)[nH]2)CC1c1ccccc1` (single isomer, unassigned) [Example 15a, 6-(3-ethyl-4-phenylpyrrolidine-1-carbonyl)pyrazin-2(1H)-one], the “mPTP Rat liver pIC50*” value in the experiment on mPTP [1] is on record as 5.27. The “mPTP Rat brain pIC50” value in the experiment on mPTP [2] worked out at 6.1.
In the case of `Cn1nc(C(=O)N2CC(c3ccccc3F)C3(CCC3)C2)[nH]c1=O` (stereo not shown) [Example 11, 5-(8-(2-fluorophenyl)-6-azaspiro[3.4]octane-6-carbonyl)-2-methyl-2,4-dihydro-3H-1,2,4-triazol-3-one], the “mPTP Rat liver pIC50*” value in the experiment with mPTP [1] turned out to be 4.75. In addition, the “mPTP Rat brain pIC50” value in the experiment on mPTP [2] was determined as 6.25.
The corresponding values for `O=C(c1ccnc(=O)[nH]1)N1CC(c2ccccc2)C2(CCC2)C1` (single isomer, unassigned) [Example 27a, 6-(8-phenyl-6-azaspiro[3.4]octane-6-carbonyl)pyrimidin-2(1H)-one] are 6.11 and 6.34.
